{
  "source": "paper PMC8894198",
  "about": "“Biosynthetic Microcin J25 Exerts Strong Antibacterial, Anti-Inflammatory Activities, Low Cytotoxicity Without Increasing Drug-Resistance to Bacteria Target” (Frontiers in Immunology, 2022)",
  "key": {"E. coli SWI 535": {"system": "E. coli SWI 535", "assay_type": "cell-based", "conditions": "source pig tissue", "protocol": "(§1) The minimum inhibitory concentration (MIC) refers to the lowest concentration that can produce a significant hindrance to bacterial growth in a drug sensitivity test by adopting a broth dilution, with certain refinements and modifications based on the previous description ([25], [26]). In short, MccJ25 was dissolved in sterilized distilled water (SDW), serial 2-fold dilutions were prepared in Mueller-Hinton broth (MHB) through a 96-well microtiter plate, and the final concentration of MccJ25 was maintained in the range of 0.003125 to 256 μg/mL. Then, 2 μL of standard and clinically relevant overnight broth cultures of bacteria were inoculated into each well at a concentration of 5 × 10^6 CFU/mL. Microtiter plates were incubated at 37°C for one full day. Two groups were set up: positive (medium with inoculum) and negative (medium only) controls. The minimum bactericidal concentration (MBC) was measured in LB medium and refers to the first drug dilution value at which the initial bacterial concentration was reduced by 99.99%. The final analysis was determined by the results of three replicated and independent experiments. To further assess and clarify the antimicrobial activity of MccJ25, the protective ability against E. coli adhesion, live/dead assay, and killing curve were performed, the detailed methods were provided in Supplementary Materials ."}, "E. coli 521ZQE": {"system": "E. coli 521ZQE", "assay_type": "cell-based", "conditions": "source pig tissue, three independent experiments", "protocol": "as §1"}, "E. coli K99": {"system": "E. coli K99", "assay_type": "cell-based", "protocol": "as §1"}, "Salmonella CATT LX5": {"system": "Salmonella CATT LX5", "assay_type": "cell-based", "conditions": "source mastitis pathogens", "protocol": "as §1"}, "E. coli LKFZ GL2": {"system": "E. coli LKFZ GL2", "assay": "MIC/MBC, clinical isolate", "assay_type": "cell-based", "conditions": "source pig stool", "protocol": "as §1"}, "E. coli LKFZ GZM4": {"system": "E. coli LKFZ GZM4", "assay": "MIC/MBC, clinical isolate", "assay_type": "cell-based", "conditions": "source pig stool", "protocol": "as §1"}, "[1]": {"system": "E. coli O111:B4 LPS-challenged BALB/c mice", "assay": "LPS-challenged mice experiment (septicemia model)", "assay_type": "in vivo", "conditions": "LPS 15 mg/kg i.p.; MccJ25 4.55 and 9.1 mg/kg BW; followed 72 h"}, "RAW 264.7 cells": {"system": "RAW 264.7 cells", "assay": "LPS-induced inflammation in macrophages", "assay_type": "cell-based, mouse", "protocol": "The mouse macrophage cell line RAW 264.7 was obtained in our lab and stored in liquid nitrogen. Cells were cultured in DMEM supplemented with 1% antibiotics (100 U/mL penicillin and 100 µg/mL streptomycin) with 20% FBS at 37°C and 5% CO2. Cells were transferred and inoculated in 12-well plates (1 × 10^4 cells/well) and cultured for 24 h.\nRAW 264.7 cells (approximately 2 × 10^4 cells/well) were cultured with 1 µg/mL E. coli LPS for 3 h at 37°C in the absence (control) or presence of 1 μg/mL MccJ25 at 5% CO2. The cells and cell culture supernatants were then collected. Culture supernatant mixed with Griess reagent (1:1) and incubated for 15 min at room temperature. A microplate reader was used to measure […] (NO) at 540 nm. The changes in induced NO levels were clarified based on the comparison between the values of the treated and control groups. Each experiment was repeated three times.\nThe concentrations of tumor necrosis factor-α (TNF-α), interleukin-6 (IL-6), IL-4, interferon (IFN)-γ, and nitric oxide (NO) in serum were measured. In addition, TNF-α and NO levels were also measured in the supernatant of RAW264.7 cells. ELISA was performed using a commercial ELISA kit (eBioscience, San Diego, USA). LPS levels in plasma were analyzed using the QCL-1000 kit (Xiamen, China) based on the manufacturer’s standards. On the day of sacrifice, eyes were extracted with ethylenediaminetetraacetic acid (EDTA), and blood was collected into clean test tubes. Peripheral hemograms and white blood cells (WBCs) were analyzed using a Coulter LH755 hematology analyzer. The levels of serum D-lactate were measured using ELISA kit (Jiancheng, Nanjing, China) according to the manufacturer’s protocols.\nThe extent and mRNA expression levels of TNF-α, IL-6, IL-10, IL-1β, IFN-γ, and TLR4, and NF-κB in each body part of the jejunum, ileum, colon, and spleen and in RAW264.7 cells were clarified by RT–PCR as previously described ([31]). Primers for TNF-α, IL-6, IL-10, IL-1β, IFN-γ, TLR4, and NF-κB are described in Table S1 . […] Combined with gel electrophoresis and a NanoDrop 2000 spectrophotometer (Thermo Fisher Scientific, Wilmington, DE), the quality and quantity of total RNA were determined. […]\nFrozen tissue samples and fresh cells were homogenized in RIPA lysis buffer containing protease inhibitors (Applygen, Beijing, China). Protein levels were determined using a BCA protein assay kit (Thermo Fisher Scientific, Rockford, IL). […] Chemofluorescence was detected using the ImageQuant LAS 4000 mini system (GE Healthcare Biosciences AB, Inc., Sweden) with Western Blot Luminance Reagent (Applygen, Beijing, China), and the membranes were cleaned with an ImageQuant TL (GE Healthcare Life Science) gel imaging system for quantification."}, "S. pullorum CVCC1791": {"system": "S. pullorum CVCC1791", "assay": "MIC broth dilution, standard strain", "assay_type": "cell-based, Salmonella pullorum", "conditions": "lowest MIC value, highly sensitive standard strain", "protocol": "as §1"}, "[2]": {"conditions": "LB medium, 99.99% reduction, three independent experiments"}, "[3]": {"conditions": "broth dilution in MHB, 37°C, three independent experiments"}},
  "note": "Where a SMILES comes first, the peptide text is derived from it. Bridges are numbered along the chain shown (N, C = ends).",
  "data": [
    {"smiles": "CC[C@H](C)[C@H](NC(=O)CNC(=O)[C@@H](NC(=O)[C@H](Cc1ccccc1)NC(=O)[C@H](Cc1ccc(O)cc1)NC(=O)[C@@H]1CCC(=O)NCC(=O)NCC(=O)N[C@@H](C)C(=O)NCC(=O)N[C@@H](Cc2c[nH]cn2)C(=O)N[C@@H](C(C)C)C(=O)N2CCC[C@H]2C(=O)N1)C(C)C)C(=O)NCC(=O)N[C@H](C(=O)N1CCC[C@H]1C(=O)N[C@H](C(=O)N[C@@H](CO)C(=O)N[C@@H](Cc1ccccc1)C(=O)N[C@@H](Cc1ccc(O)cc1)C(=O)NCC(=O)O)[C@@H](C)CC)[C@@H](C)O", "note": "[MccJ25, microcin J25] (GGAGHVPEYFVGIGTPISFYG-OH; lactam N-8 (inferred); C-terminus assumed)", "values": [
      {"measurement": "MBC", "setting": "E. coli SWI 535; [2]", "value": 2.000, "unit": "µg/mL"},
      {"measurement": "MIC", "setting": "E. coli SWI 535; [3]", "value": 0.500, "unit": "µg/mL"},
      {"measurement": "MIC/MBC", "setting": "E. coli SWI 535; ratio", "value": 0.250},
      {"measurement": "MBC", "setting": "E. coli 521ZQE; LB medium, 99.99% reduction", "value": 2.000, "unit": "µg/mL"},
      {"measurement": "MIC", "setting": "E. coli 521ZQE; broth dilution in MHB, 37°C", "value": 0.250, "unit": "µg/mL"},
      {"measurement": "MBC", "setting": "E. coli K99; [2]", "value": 0.250, "unit": "µg/mL"},
      {"measurement": "MIC", "setting": "E. coli K99; broth dilution in MHB, 37°C, one day, three independent experiments", "value": 0.030, "unit": "µg/mL"},
      {"measurement": "MIC/MBC", "setting": "E. coli K99; ratio", "value": 0.120},
      {"measurement": "MBC", "setting": "Salmonella CATT LX5; [2]", "value": 0.125, "unit": "µg/mL"},
      {"measurement": "MIC", "setting": "Salmonella CATT LX5; [3]", "value": 0.030, "unit": "µg/mL"},
      {"measurement": "MIC/MBC", "setting": "Salmonella CATT LX5; ratio", "value": 0.240},
      {"measurement": "MBC", "setting": "E. coli LKFZ GL2; [2]", "value": 0.500, "unit": "µg/mL"},
      {"measurement": "MIC", "setting": "E. coli LKFZ GL2; [3]", "value": 0.250, "unit": "µg/mL"},
      {"measurement": "MIC/MBC", "setting": "E. coli LKFZ GL2; ratio", "value": 0.500},
      {"measurement": "MBC", "setting": "E. coli LKFZ GZM4; [2]", "value": 1.000, "unit": "µg/mL"},
      {"measurement": "MIC", "setting": "E. coli LKFZ GZM4; [3]", "value": 0.250, "unit": "µg/mL"},
      {"measurement": "MIC/MBC", "setting": "E. coli LKFZ GZM4; ratio", "value": 0.250},
      {"measurement": "survival rate", "setting": "[1]", "value": "increased"},
      {"measurement": "LPS-stimulated expression of TNF-α and TLR-4 (RT-PCR)", "setting": "RAW 264.7 cells; LPS 1 µg/mL, MccJ25 1 µg/mL", "value": "this stimulatory effect was inhibited"},
      {"measurement": "LPS-induced TNF-α and NO secretion", "setting": "RAW 264.7 cells; LPS 1 µg/mL, MccJ25 1 µg/mL, 3 h", "value": "this increase in secretion was alleviated"},
      {"measurement": "MyD88, TLR4, TNF-α and IL-6 protein expression", "setting": "RAW 264.7 cells; western blot, after LPS challenge", "value": "sharply decreased"},
      {"measurement": "p-NF-κB and MyD88 protein expression", "setting": "RAW 264.7 cells; western blot, after LPS challenge for 3 h", "value": "significantly decreased"},
      {"measurement": "MIC", "setting": "S. pullorum CVCC1791", "value": 0.03, "unit": "µg/mL"}
    ]}
  ]
}
